According to patent US5475032A, “2,4-disulfonyl phenyl butyl nitrone, its salts, and their use as pharmaceuticals” (Oklahoma Medical Research Foundation, priority 1995, dated 1995):
Like-named read-outs stand apart in the source and are kept apart here.

Experiments:
[1] = test system: infarct volume following middle cerebral artery occlusion; settings: cited from earlier work
[2] = test system: neuronal loss following ischemia; assay: protection from neuronal loss, i.v. 60 min after reperfusion onset following 5 min ischemia (Example 5); type: in vivo, gerbil; settings: for protection for neuronal loss (neuronal density): 60 min after reperfusion onset
[3] = test system: normal or uninjured cells; settings: cited from earlier work
[4] = doses demonstrated to be possible; settings: up to 1000 mg/kg/hour and higher, or i.v. bolus 10 to 2500 mg/kg
[5] = test system: neuron loss following brain ischemia and reperfusion injury; assay: neuronal density, post-ischemia treatment, compound i.p. 30 min after reperfusion following 5 min ischemia (Example 4); type: in vivo, gerbil
[6] = comparative tests: nitrone pretreatment combined with adriamycin (Example 13); type: in vivo, mouse; settings: mouse, in vivo, ip; 300 mg/kg with adriamycin; read-out: combined toxicity (lethality)
Text: (§1) All injections were intraperitoneal.

[7] = test system: acute lethal effects of adriamycin; assay: as above; type: in vivo, mouse
Text: as §1

[8] = test system: glutamine synthetase (GS); assay: protection of glutamine synthetase against βAP 25-35 (Example 11); type: biochemical, gerbil; settings: co-incubation with 0.4 mg/ml BAP 25-35
Procedure: (§2) Cytosolic fractions from gerbil neocortex were prepared and enzyme activities determined. Samples were incubated in the presence of different concentrations of the peptide for 10 min prior to assay. Solid symbols represent the effects of the naturally occurring 25-35 fragment. […] Each point is the mean (+/- s.e.) of 5 observations. βAP derived and other cellular sources of free radicals are an important determinant of the initiation and progression of AD.
(§3) Each point is the mean (+/- s.e.) of 3 observations.

[9] = test system: neuron loss following brain ischemia and reperfusion injury; assay: neuronal density after 5 min bilateral carotid occlusion, compound i.p. 30 min before ischemia (Example 3); type: in vivo, gerbil; settings: 30 min before ischemia
Procedure: In the experiments a test compound was administered to groups of six gerbils i.p. as a single dose 30 min before 5 min bilateral carotid occlusion. The density of neuronal nuclei in a 100 micron was measured. Two controls were present--controls which received no test compound and controls which received no test compound and no brain ischemia.

[10] = test system: infarct volume following middle cerebral occlusion; assay: infarct volume after middle cerebral occlusion (Example 7); type: in vivo, C57BL/6J mice; settings: from 60 min after occlusion for 24 hours
Procedure: The ability of the compound of the invention to reduce infarct volume following an ischemic event was determined.

[11] = test system: C57BL/6L mice; assay: acute lethality, single i.p. doses of nitrone (Example 9); type: in vivo, mouse; settings: PBN at 560 mg/kg, Compound I at doses nearly twenty times as great
Procedure: As detailed in Table 7. acute lethality in C57BL/6L mice was determined based upon varying sizes of single i.p. doses of nitrone.

[12] = test system: severe trauma ischemia; settings: in vivo; cited from earlier work
[13] = test system: creatine kinase (CK); assay: protection of creatine kinase against βAP 25-35 (Example 11); type: biochemical, gerbil; settings: co-incubation with 0.4 mg/ml BAP 25-35
Procedure: as §2, §3

[14] = test system: temporal/spatial short term memory following ischemia; assay: 8-arm radial maze test 24 hours after ischemia (Example 6); type: in vivo, gerbil
Procedure: Brain injury can manifest itself as behavioral changes. In this experiment, young adult (3-4 months of age) gerbils were tested to determine their ability to perform an 8-arm maze test 24 hours following an ischemic event as described in Example 1. As compared to nonischemic animals, when untreated they committed many more errors. PBN and compound I were administered to some of the test animals.

[15] = test system: lethality from 10 min ischemia; assay: lethality protection in aged gerbils from 10 min ischemia (Example 8); type: in vivo, gerbil; settings: 30 min before ischemia

Question: For `CC(C)(C)[N+]([O-])=Cc1ccccc1` [PBN, Alpha-phenyl tert butyl nitrone], which infarct volume reduction ([1]; 100 mg/kg i.p. at 0.5, 5, 17, 29 and 41 hours post stroke) is on record?
Answer: approximately 50%

Question: What about the infarct volume reduction ([1]; 100 mg/kg i.p. at 5, 17, 29, and 41 hours post stroke) of the same compound?
Answer: approximately 50%

Question: And the “protection for neuronal loss (neuronal density)” value (“protection for neuronal loss” below) ([2]; 0.5 mg/kg single dose i.v.)?
Answer: 0.83

Question: What about the “protection for neuronal loss” value ([2]; 1.0 mg/kg single dose i.v.) of the same compound?
Answer: 1.07

Question: And the “protection for neuronal loss” value ([2]; 10 mg/kg single dose i.v.)?
Answer: 1.23

Question: And the “effect on neuronal density in control gerbils” value ([2]; control gerbils without brain injury)?
Answer: Neither PBN nor Compound I. had an effect on neuronal density

Question: And the “effect on normal or uninjured cells” value [3]?
Answer: no measurable effect on normal or uninjured cells

Question: What about the “death or acute toxicity” value [4] of the same compound?
Answer: death or acute toxicity

Question: And the “Neuronal nuclei/100 micron field” value ([5]; 32 mg/kg i.p.)?
Answer: 1.09 Neuronal nuclei/100 micron field

Question: And the “Neuronal nuclei/100 micron field” value ([5]; 50 mg/kg i.p.)?
Answer: 1.85 Neuronal nuclei/100 micron field

Question: What about the “Neuronal nuclei/100 micron field” value ([5]; 100 mg/kg i.p.) of the same compound?
Answer: 2.11 Neuronal nuclei/100 micron field

Question: And the “Neuronal nuclei/100 micron field” value ([5]; 320 mg/kg i.p.)?
Answer: 2.25 Neuronal nuclei/100 micron field

Question: What about the “Neuronal nuclei/100 micron field” value ([5]; 1000 mg/kg i.p.) of the same compound?
Answer: Toxic

Question: What about the mortality [6] of the same compound?
Answer: 10 to 20%

Question: What about the sedation ([7]; 100 mg/kg) of the same compound?
Answer: slight sedation

Question: And the sedation ([7]; 300 mg/kg)?
Answer: marked sedation

Question: What about the “protection of GS against the effects of βAP fragments” value [8] of the same compound?
Answer: asymptotically leveling out at a substantially incomplete level of protection

Question: And the “Neuronal nuclei/100 micron field” value ([9]; 3.2 mg/kg i.p.)?
Answer: 0.43 Neuronal nuclei/100 micron field

Question: And the “Neuronal nuclei/100 micron field” value ([9]; 10 mg/kg i.p.)?
Answer: 1.13 Neuronal nuclei/100 micron field

Question: And the “Neuronal nuclei/100 micron field” value ([9]; 32 mg/kg i.p.)?
Answer: 1.83 Neuronal nuclei/100 micron field

Question: What about the “Neuronal nuclei/100 micron field” value ([9]; 50 mg/kg i.p.) of the same compound?
Answer: 3.11 Neuronal nuclei/100 micron field

Question: What about the “Neuronal nuclei/100 micron field” value ([9]; 100 mg/kg i.p.) of the same compound?
Answer: 3.68 Neuronal nuclei/100 micron field

Question: And the “Neuronal nuclei/100 micron field” value ([9]; 320 mg/kg i.p.)?
Answer: 3.78 Neuronal nuclei/100 micron field

Question: What about the “Neuronal nuclei/100 micron field” value ([9]; 1000 mg/kg i.p.) of the same compound?
Answer: Toxic

Question: And the “Neuronal nuclei/100 micron field” value ([9]; 3200 mg/kg i.p.)?
Answer: Toxic

Question: What about the “Infarct Volume” value ([10]; 1.0 mg/kg/hr i.v.) of the same compound?
Answer: 17.7 mm^3

Question: What about the “Infarct Volume” value ([10]; 10 mg/kg/hr i.v.) of the same compound?
Answer: 13.8 mm^3

Question: What about the “Infarct Volume” value ([10]; 100 mg/kg/hr i.v.) of the same compound?
Answer: Toxic

Question: What about the toxicity [11] of the same compound?
Answer: significant toxicity

Question: And the “survival of treated animals vs controls” value [12]?
Answer: more likely to survive than controls

Question: And the “protection of CK against the effects of βAP fragments” value [13]?
Answer: asymptotically leveling out at a substantially incomplete level of protection

Question: What about the “errors in 8-arm radial maze” value ([14]; 1.0 mg/kg/hr for 24 hours) of the same compound?
Answer: 29.8 errors

Question: What about the “errors in 8-arm radial maze” value ([14]; 32 mg/kg/hr for 24 hours) of the same compound?
Answer: 18.19 errors

Question: And the “errors in 8-arm radial maze” value ([14]; 50 mg/kg/hr for 24 hours)?
Answer: 6.23 errors

Question: And the “errors in 8-arm radial maze” value ([14]; 100 mg/kg/hr for 24 hours)?
Answer: 5.83 errors

Question: What about the error levels ([14]; high doses) of the same compound?
Answer: less effective

Question: And the “lethality protection (% survived)” value ([15]; 10 mg/kg)?
Answer: 42%

Question: And the “lethality protection (% survived)” value ([15]; 32 mg/kg)?
Answer: 50%

Question: What about the “lethality protection (% survived)” value ([15]; 100 mg/kg) of the same compound?
Answer: 75%

Question: What about the “lethality protection (% survived)” value ([15]; 320 mg/kg) of the same compound?
Answer: 92%

Question: And the lethality protection ([15]; Compound I: at high levels)?
Answer: only partially effective
